# Results published in publication PMC9603750, “Chalcone-Acridine Hybrid Suppresses Melanoma Cell Progression via G2/M Cell Cycle Arrest, DNA Damage, Apoptosis, and Modulation of MAP Kinases Activity” (International Journal of Molecular Sciences, 2022).
# How the values were obtained:
# Format in all cases: cell-based, human
# A2058 melanoma cells [1] = experiment: Western blot analyses of protein expression/phosphorylation
# Experimental: (§1) Melanoma cells (A2058 and BLM) were treated with the tested chalcone 1C (10 μM and 20 μM) for 24, 48 and 72 h. Protein lysates from melanoma cells were prepared using a Laemmle lysis buffer containing glycerol, 1M Tris/HCl (pH 6.8), 20% sodium dodecyl sulfate (SDS), deionized H20, phosphatase and protease inhibitors (Sigma-Aldrich) and a sonication process. The protein concentrations were determined by the Pierce® BCA Protein Assay Kit (Thermo Scientific, Rockford, IL, USA) and measured by an automated Cytation™ 3 Cell Imaging Multi-Mode Reader (Biotek) at a wavelength of 570 nm. Proteins (25–40 μg of sample per well) were separated on SDS-PAA gel (12%) at 100 V for 3 h and transferred to a polyvinylidene difluoride (PVDF) membrane using the iBlot™ 2 Dry Blotting System (Invitrogen, Carlsbad, CA, USA). Membranes with transferred proteins were blocked in 5% BSA (bovine serum albumin; SERVA, Heidelberg, Germany) or 5% non-fat dry milk (Cell Signaling Technology®, Danvers, MA, USA) in TBS-Tween (pH 7.4) for 1 h at room temperature to minimise non-specific binding. Blocking was followed by incubation with primary antibodies (Table 6) overnight at 4 °C. The next day, membranes were washed in TBS-Tween (3 × 5 min) and incubated with the corresponding horseradish peroxidase (HRP)-conjugated anti-mouse or anti-rabbit secondary antibody for 1 h at room temperature. After incubation, membranes were washed again in TBS-Tween (3 × 5 min) and the expression of proteins was detected using the MF-ChemiBIS 2.0 Imaging System (DNR BIO-Imaging Systems, Jerusalem, Israel) with chemiluminescent ECL substrate (Thermo Scientific, Rockford, IL, USA). A densitometric analysis of Western Blot (WB) results was performed using the Image Studio™ Lite Software (LI-COR Biosciences, Lincoln, NE, USA). Equal loading was verified by using the β-actin antibody. Three independent analyses were performed.
# BLM melanoma cells [2] = experiment: as above
# Experimental: as §1
# A2058 melanoma cells [3] = experiment: Cell cycle analysis by flow cytometry (PI); details: A2058, 1C 10 μmol/L
# Experimental: (§2) The A2058 and BLM melanoma cells were seeded at a density of 1 × 10^5/dish in a Petri dish. Twenty-four hours after incubation, A2058 cells were treated with chalcone 1C at 10 μmol/L concentration, BLM cells at 20 μmol/L concentration and both melanoma cell lines were treated with DMSO as the negative control at the same concentrations. For flow cytometric analysis of the cell cycle, adherent and floating A2058 and BLM melanoma cells were harvested in three different times (24, 48 and 72 h) after treatment with chalcone 1C and DMSO, washed in cold washing buffer (PBS), fixed in cold 70% ethanol and stored at −20 °C at least overnight. Prior to analysis, cells were washed with PBS, resuspended in staining solution (Triton X-100 final concentration 0.1%, ribonuclease A final concentration 0.5 mg/mL and propidium iodide final concentration 0.025 mg/mL, all Sigma), and incubated for 30 min in the dark at room temperature. Stained melanoma cells were analysed using a BD FACSCalibur^TM Flow Cytometer (Becton Dickinson, San Jose, CA, USA). Three independent analyses were performed.
# BLM melanoma cells [4] = experiment: Cell cycle analysis by flow cytometry (PI); details: 1C 20 μmol/L
# Experimental: as §2
# [5] = A2058, 1C 10 μmol/L, 24, 48 and 72 h
# [6] = 1C 20 μmol/L, maximum after 72 h
smiles,measurement,setting,value
"COc1cccc(OC)c1C(=O)/C=C/c1c2ccccc2nc2ccccc12 [Compound 1C, (2E)-3-(acridin-9-yl)-1-(2,6-dimethoxyphenyl)prop-2-en-1-one]",Levels of antiapoptotic protein Bcl-xL (WB),"A2058 melanoma cells [1]; A2058, 1C 10 μmol/L",decreased levels
same,Phosphorylation of Bad (WB),"A2058 melanoma cells [1]; A2058, 1C 10 μmol/L",increasing up to 48 h
same,Phosphorylation of Bcl-2 (WB),"A2058 melanoma cells [1]; A2058, 1C 10 μmol/L",increased in A2058 up to 48 h and decreased at 72 h
same,Phosphorylation of Chk1 (WB),"A2058 melanoma cells [1]; A2058, 1C 10 μmol/L, 24, 48 (maximum) and 72 h",significantly induced
same,Levels of cleaved PARP (89 kDa) (WB),A2058 melanoma cells [1]; [5],significantly increased
same,Total and phosphorylated p53 protein (WB),A2058 melanoma cells [1]; [5],significant increase
same,Expression of p21 protein (WB),"A2058 melanoma cells [1]; A2058, 1C 10 μmol/L, after 24 and 48 h",significant increase
same,Phospho-JNK (WB),"A2058 melanoma cells [1]; A2058, 1C 10 μmol/L, all tested timepoints",significantly increased
same,Phosphorylated form of p38 MAPK (WB),"A2058 melanoma cells [1]; A2058, 1C 10 μmol/L, mainly after 48 h",significantly increased
same,"Expression of α-, α1C- and β-tubulin (WB)","A2058 melanoma cells [1]; A2058, 1C 10 μmol/L, maximum after 48 and 72 h",significant upregulation
same,Phosphorylation of ERK1/2 (WB),"A2058 melanoma cells [1]; A2058, 1C 10 μmol/L, maximum after 48 h",significantly increased
same,Phosphorylated cyclin B1 (WB),"A2058 melanoma cells [1]; A2058, 1C 10 μmol/L, maximum after 72 h",significant downregulation
same,Amounts of proapoptotic protein Bax and Bad (WB),"A2058 melanoma cells [1]; A2058, 1C 10 μmol/L, maximum at 48 h",significantly increased
same,Total Bcl-2 protein (WB),"A2058 melanoma cells [1]; A2058, 1C 10 μmol/L, up to 48 h",upregulated
same,Expression of p21 protein (WB),BLM melanoma cells [2]; 1C 20 μmol/L,showed an increase and maintained a trend
same,Levels of antiapoptotic protein Bcl-xL (WB),BLM melanoma cells [2]; 1C 20 μmol/L,decreased levels
same,Phosphorylation of Bad (WB),BLM melanoma cells [2]; 1C 20 μmol/L,increasing up to 48 h
same,Phosphorylation of Bcl-2 (WB),BLM melanoma cells [2]; 1C 20 μmol/L,increased up to the 72 h time point
same,Phosphorylation of Chk1 (WB),BLM melanoma cells [2]; 1C 20 μmol/L,consilient trend of Chk1 phosphorylation
same,Phosphorylation of ERK1/2 (WB),BLM melanoma cells [2]; 1C 20 μmol/L,consilient trend of ERK1/2 phosphorylation
same,Total Bcl-2 protein upregulated (WB),BLM melanoma cells [2]; 1C 20 μmol/L,it was not
same,p53 phosphorylation (WB),BLM melanoma cells [2]; 1C 20 μmol/L,phosphorylation increased late on 72 h
same,Levels of cleaved PARP (89 kDa) (WB),"BLM melanoma cells [2]; 1C 20 μmol/L, 24, 48 and 72 h",significantly increased
same,Total p53 protein (WB),"BLM melanoma cells [2]; 1C 20 μmol/L, 24, 48 and 72 h","maintenanted on basic levels as DMSO treated controls, with little decrease at 24 h"
same,Phospho-JNK (WB),"BLM melanoma cells [2]; 1C 20 μmol/L, all tested timepoints",significantly increased
same,Phosphorylated form of p38 MAPK (WB),"BLM melanoma cells [2]; 1C 20 μmol/L, mainly after 48 h",significantly increased
same,Expression of α1C-tubulin (WB),BLM melanoma cells [2]; [6],upregulation
same,Phosphorylated cyclin B1 (WB),BLM melanoma cells [2]; [6],significant downregulation
same,Amounts of proapoptotic protein Bax and Bad (WB),"BLM melanoma cells [2]; 1C 20 μmol/L, maximum at 48 h",significantly increased
same,Expression of α- and β-tubulin (WB),"BLM melanoma cells [2]; 1C 20 μmol/L, time-dependent",significant downregulation
same,G1,A2058 melanoma cells [3]; 24 h,34.67 ± 4.92
same,G2/M,A2058 melanoma cells [3]; 24 h,52.23 ± 7.03
same,S,A2058 melanoma cells [3]; 24 h,11.79 ± 1.51
same,subG0,A2058 melanoma cells [3]; 24 h,1.30 ± 1.11
same,G1,A2058 melanoma cells [3]; 48 h,24.60 ± 11.45
same,G2/M,A2058 melanoma cells [3]; 48 h,59.73 ± 12.23
same,S,A2058 melanoma cells [3]; 48 h,8.12 ± 1.15
same,subG0,A2058 melanoma cells [3]; 48 h,7.54 ± 3.73
same,G1,A2058 melanoma cells [3]; 72 h,18.67 ± 8.56
same,G2/M,A2058 melanoma cells [3]; 72 h,60.37 ± 4.42
same,S,A2058 melanoma cells [3]; 72 h,8.85 ± 2.70
same,subG0,A2058 melanoma cells [3]; 72 h,12.12 ± 5.84
same,G1,BLM melanoma cells [4]; 24 h,19.35 ± 1.43
same,G2/M,BLM melanoma cells [4]; 24 h,63.25 ± 0.45
same,S,BLM melanoma cells [4]; 24 h,9.19 ± 0.28
same,subG0,BLM melanoma cells [4]; 24 h,8.22 ± 1.62
same,G1,BLM melanoma cells [4]; 48 h,11.65 ± 0.69
same,G2/M,BLM melanoma cells [4]; 48 h,54.95 ± 0.45
same,S,BLM melanoma cells [4]; 48 h,16.35 ± 0.20
same,subG0,BLM melanoma cells [4]; 48 h,17.05 ± 0.45
same,G1,BLM melanoma cells [4]; 72 h,13.85 ± 1.18
same,G2/M,BLM melanoma cells [4]; 72 h,29.25 ± 0.04
same,S,BLM melanoma cells [4]; 72 h,32.60 ± 2.69
same,subG0,BLM melanoma cells [4]; 72 h,24.30 ± 3.84
